# According to patent US12054466B2, “Compounds for the treatment of clostridium difficile infection” (University of Notre Dame du Lac, priority 2016, dated 2024):
# Where two headings read alike, the source gives them in different places.
# Key:
# Assay type in all cases: cell-based
# Eubacterium sp. HM-178 = assay: MIC against common gut bacteria; conditions: SP.HM178
# C. difficile NR49294 = assay: MIC, broth microdilution; conditions: Clostridioides difficile, C. difficile NR49294 (NAP4, ribotype 014)
# C. difficile BAA-1814 = assay: MIC, broth microdilution; conditions: Clostridioides difficile, BAA1814, C. difficile BAA-1814
# C. difficile BAA-1804 = assay: MIC, broth microdilution; conditions: Clostridioides difficile, BAA1804, C. difficile BAA-1804
# C. difficile ATCC43255 = assay: MIC, broth microdilution; conditions: Clostridioides difficile, C. difficile ATCC43255
# Bacteroides ovatus = assay: MIC against common gut bacteria; conditions: read-out: MIC
# C. difficile BAA-1801 = assay: MIC, broth microdilution; conditions: Clostridioides difficile, BAA1801, C. difficile BAA-1801 (nontoxigenic)
# [1] = test system: Lactobacillus gasseri HM-644; assay: MIC against common gut bacteria; conditions: HM644; Lactobacillus gasseri HM-644; read-out: MIC
# C. difficile BAA-1803 = assay: MIC, broth microdilution; conditions: Clostridioides difficile, BAA1803, C. difficile BAA-1803 (NAP1, ribotype 027)
# [2] = test system: Bifidobacterium longum HM-846; assay: MIC against common gut bacteria; conditions: HM846; Bifidobacterium longum HM-846; read-out: MIC
# Veillonella sp. HM-49 = assay: MIC against common gut bacteria; conditions: SP.HM49; Veillonella sp. HM-49; read-out: MIC
# C. difficile NR49318 = assay: MIC, broth microdilution; conditions: Clostridioides difficile, C. difficile NR49318 (NAP11, ribotype 106)
# C. difficile ATCC43598 = assay: MIC, broth microdilution; conditions: Clostridioides difficile, C. difficile ATCC43598
# [3] = test system: Corynebacterium sp. HM-784; assay: MIC against common gut bacteria; conditions: SP.HM784; Corynebacterium sp. HM-784; incubated aerobically; read-out: MIC
# Bacteroides vulgatus = assay: MIC against common gut bacteria; conditions: Phocaeicola vulgatus; Bacteroides vulgatus; read-out: MIC
# C. difficile BAA-1870 = assay: MIC, broth microdilution; conditions: Clostridioides difficile, BAA1870, C. difficile BAA-1870 (NAP1, ribotype 27)
# C. difficile BAA-1812 = assay: MIC, broth microdilution; conditions: Clostridioides difficile, BAA1812, C. difficile BAA-1812
# C. difficile NR49302 = assay: MIC, broth microdilution; conditions: Clostridioides difficile, C. difficile NR49302 (NAP4, ribotype 020)
# [4] = test system: Lactobacillus reuteri HM-102; assay: MIC against common gut bacteria; conditions: Limosilactobacillus reuteri, HM102; Lactobacillus reuteri HM-102; read-out: MIC
# [5] = test system: Bacteroides fragilis HM-709; assay: MIC against common gut bacteria; conditions: HM709; Bacteroides fragilis HM-709; read-out: MIC
# Bacteroides caccae = assay: MIC against common gut bacteria; conditions: read-out: MIC
# C. difficile NR49305 = assay: MIC, broth microdilution; conditions: Clostridioides difficile, C. difficile NR49305 (NAP6, ribotype 002)
# Bacteroides fragilis = assay: MIC against common gut bacteria; conditions: read-out: MIC
# Bacteroides eggerthii = assay: MIC against common gut bacteria; conditions: read-out: MIC
# C. difficile NR49310 = assay: MIC, broth microdilution; conditions: Clostridioides difficile, C. difficile NR49310 (NAP7, ribotype 078)
# [6] = test system: Fusobacterium nucleatum HM-992; assay: MIC against common gut bacteria; conditions: HM992; Fusobacterium nucleatum HM-992; read-out: MIC
# C. difficile NR49292 = assay: MIC, broth microdilution; conditions: Clostridioides difficile, C. difficile NR49292 (NAP2, ribotype 001_072)
compound,measurement,setting,value
CCc1c(Cl)c(O)c(Cl)c(O)c1C(=O)O[C@H]1[C@H](O)[C@H](OC)[C@H](OC/C2=C\C=C\C[C@H](O)/C(C)=C/[C@H](CC)[C@@H](O[C@@H]3OC(C)(C)[C@@H](OC(=O)C(C)C)[C@H](O)[C@@H]3O)/C(C)=C/C(C)=C/C[C@@H]([C@@H](C)O)OC2=O)O[C@@H]1C [fidaxomicin],MIC,Eubacterium sp. HM-178,16 µg/mL
same,MIC,"C. difficile NR49294; 24 h, read-out: MIC at 24 h",≤ 0.01 µg/mL
same,MIC,"C. difficile NR49294; 48 h, read-out: MIC at 48 h",0.01 µg/mL
same,MIC,"C. difficile BAA-1814; 24 h, read-out: MIC at 24 h",≤ 0.01 µg/mL
same,MIC,"C. difficile BAA-1814; 48 h, read-out: MIC at 48 h",0.03 µg/mL
same,MIC,"C. difficile BAA-1804; 24 h, read-out: MIC at 24 h",< 0.25 µg/mL
same,MIC,"C. difficile BAA-1804; 48 h, read-out: MIC at 48 h",< 0.25 µg/mL
same,MIC,"C. difficile ATCC43255; 24 h, read-out: MIC at 24 h",0.01 µg/mL
same,MIC,"C. difficile ATCC43255; 48 h, read-out: MIC at 48 h",0.01 µg/mL
same,MIC,Bacteroides ovatus,> 32 µg/mL
same,MIC,"C. difficile BAA-1801; 24 h, read-out: MIC at 24 h",0.03 µg/mL
same,MIC,"C. difficile BAA-1801; 48 h, read-out: MIC at 48 h",0.125 µg/mL
same,MIC,[1],2 µg/mL
same,MIC,"C. difficile BAA-1803; 24 h, read-out: MIC at 24 h",0.5 µg/mL
same,MIC,"C. difficile BAA-1803; 48 h, read-out: MIC at 48 h",1 µg/mL
same,MIC,[2],< 0.01 µg/mL
same,MIC,Veillonella sp. HM-49,8 µg/mL
same,MIC,"C. difficile NR49318; 24 h, read-out: MIC at 24 h",0.25 µg/mL
same,MIC,"C. difficile NR49318; 48 h, read-out: MIC at 48 h",0.125 µg/mL
same,MIC,"C. difficile ATCC43598; 24 h, read-out: MIC at 24 h",0.01 µg/mL
same,MIC,"C. difficile ATCC43598; 48 h, read-out: MIC at 48 h",0.01 µg/mL
same,MIC,[3],< 0.06 µg/mL
same,MIC,Bacteroides vulgatus,> 32 µg/mL
same,MIC,"C. difficile BAA-1870; 24 h, read-out: MIC at 24 h",< 0.25 µg/mL
same,MIC,"C. difficile BAA-1870; 48 h, read-out: MIC at 48 h",0.25 µg/mL
same,MIC,"C. difficile BAA-1812; 24 h, read-out: MIC at 24 h",0.015 µg/mL
same,MIC,"C. difficile BAA-1812; 48 h, read-out: MIC at 48 h",0.125 µg/mL
same,MIC,"C. difficile NR49302; 24 h, read-out: MIC at 24 h",0.03 µg/mL
same,MIC,"C. difficile NR49302; 48 h, read-out: MIC at 48 h",0.03 µg/mL
same,MIC,[4],> 32 µg/mL
same,MIC,[5],> 32 µg/mL
same,MIC,Bacteroides caccae,> 32 µg/mL
same,MIC,"C. difficile NR49305; 24 h, read-out: MIC at 24 h",0.01 µg/mL
same,MIC,"C. difficile NR49305; 48 h, read-out: MIC at 48 h",0.01 µg/mL
same,MIC,Bacteroides fragilis,> 32 µg/mL
same,MIC,Bacteroides eggerthii,> 32 µg/mL
same,MIC,"C. difficile NR49310; 24 h, read-out: MIC at 24 h",≤ 0.01 µg/mL
same,MIC,"C. difficile NR49310; 48 h, read-out: MIC at 48 h",≤ 0.01 µg/mL
same,MIC,[6],< 0.06 µg/mL
same,MIC,"C. difficile NR49292; 24 h, read-out: MIC at 24 h",0.25 µg/mL
same,MIC,"C. difficile NR49292; 48 h, read-out: MIC at 48 h",0.5 µg/mL
